Measured values as given in PubChem BioAssay (NCI).
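Dose response: 5 concentrations. Exposure: 48 h. Format: 96-well plates. Endpoint: linear interpolation; highest concentration if not reached. GI50 is the concentration that inhibits growth by half. TGI is the concentration that stops growth completely.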

Key:
Experiment in all cases: NCI anticancer screen, dose series, 48 h
HCC-2998 colon = tested on: HCC-2998 colon
RPMI-8226 leukemia = tested on: RPMI-8226 leukemia
SK-MEL-2 melanoma = tested on: SK-MEL-2 melanoma
EKVX NSCLC = tested on: EKVX NSCLC
ACHN renal = tested on: ACHN renal
HT29 colon = tested on: HT29 colon
HOP-62 NSCLC = tested on: HOP-62 NSCLC
HOP-92 NSCLC = tested on: HOP-92 NSCLC
OVCAR-4 ovarian = tested on: OVCAR-4 ovarian
SR leukemia = tested on: SR leukemia

Row | Structure (SMILES) | TGI (HCC-2998 colon) | TGI (RPMI-8226 leukemia) | TGI (SK-MEL-2 melanoma) | TGI (EKVX NSCLC) | TGI (ACHN renal) | TGI (HT29 colon) | TGI (HOP-62 NSCLC) | TGI (HOP-92 NSCLC) | GI50 (OVCAR-4 ovarian) | TGI (OVCAR-4 ovarian) | GI50 (HCC-2998 colon) | GI50 (RPMI-8226 leukemia) | GI50 (SK-MEL-2 melanoma) | GI50 (EKVX NSCLC) | GI50 (ACHN renal) | GI50 (HT29 colon) | GI50 (HOP-92 NSCLC) | GI50 (SR leukemia) | TGI (SR leukemia) | GI50 (HOP-62 NSCLC)
1 | CC(=O)Oc1c2c(c(O)c3ccccc13)C(n1cnc3c(ncn3C3OC(CO)C4OC(C)(C)OC43)c1=N)CCC2 (stereo not given) | 28.4 µM | 18.7 µM | 29.4 µM | 36.9 µM | 30.9 µM | 29.2 µM | 30.6 µM | 39.1 µM |  |  |  |  |  |  |  |  |  |  |  | 
2 | COc1ccc2c(c1)C(=O)c1c-2c(N2CCN(C(=O)CNCCNCCO)CC2)nc2ccccc12 | 7.58 µM | 4.68 µM | 4 µM | 19.7 µM | 24.9 µM | 3.05 µM |  | 9.68 µM | 6.71 µM | 19.4 µM | 2580 nM | 2040 nM | 2200 nM | 7.15 µM | 11 µM | 1610 nM | 2470 nM |  |  | 
3 | O=C1OCC2=C1C(c1cccc(Br)c1)c1cc3c(cc1N2CCO)CCC3 (stereo not given) | 1.66 µM | 10 µM | 8.32 µM | 19.5 µM | 9.68 µM | 1.3 µM | 7.11 µM |  | 0.168 µM | 16 µM | 130 nM | 183 nM | 231 nM | 0.682 µM | 0.0865 µM | 109 nM |  | 185 nM | 22.2 µM | 0.0888 µM
4 | O=c1ccn([C@H]2CSC[C@@H](CO)C2)c(=O)[nH]1 | > 100 µM | > 100 µM | > 100 µM | > 100 µM | > 100 µM | > 100 µM | > 100 µM | > 100 µM |  | > 100 µM |  |  |  |  |  |  |  |  |  | 
5 | OCC1OC(c2nc(C3=NCCCN3)cs2)C(O)C1O (stereo not given) | > 100 µM | > 100 µM | > 100 µM | > 100 µM | > 100 µM | > 100 µM | > 100 µM | > 100 µM |  | > 100 µM |  |  |  |  |  |  |  |  |  | 
6 | COc1ccc(/C=C2/N=C(c3ccccc3)N(c3c(C)n(C)n(-c4ccccc4)c3=O)C2=O)cc1OC | > 100 µM | > 100 µM | > 100 µM | > 100 µM | > 100 µM | > 100 µM | > 100 µM | > 100 µM | > 100 µM | > 100 µM | > 100000 nM | > 100000 nM | > 100000 nM | > 100 µM | > 100 µM | > 100000 nM | > 100000 nM |  |  | > 100 µM
7 | Cc1[nH]c2ccccc2c1C(=O)/C=C/c1ccccc1O | > 100 µM |  | > 100 µM | > 100 µM | > 100 µM | > 100 µM | > 100 µM |  |  | > 100 µM |  |  |  |  |  |  |  |  | > 100 µM | 
8 | O=C(CSc1nc2ccccc2nc1-c1ccccc1)Nc1ccc(F)cc1 | > 100 µM | > 100 µM | > 100 µM | > 100 µM | > 100 µM | 96.5 µM | > 100 µM | 58.1 µM | 1.96 µM | 15.7 µM | 49600 nM | 58500 nM | 73500 nM | 75 µM | 41.9 µM | 21500 nM | 20300 nM |  |  | 32.6 µM
9 | COc1cc(F)ccc1-c1ncnc(Nc2cccc(CS(C)(=N)=O)c2)n1 (stereo not given) | > 100 µM | 61 µM | 3.47 µM | 37.2 µM | > 100 µM | 6.39 µM | 8.38 µM | 4.19 µM | 2.4 µM | > 100 µM | 2540 nM | 3170 nM | 1080 nM | 1.4 µM | 0.476 µM | 642 nM | 671 nM |  |  | 0.564 µM
10 | Cn1cc(-c2csc(-c3c[nH]c4ccc(F)cc34)n2)c2cnccc21 | 3.66 µM |  | 3.48 µM | 3.3 µM | 3.12 µM | 3.29 µM | 2.98 µM | 3.09 µM | 1.6 µM | 3.06 µM | 1950 nM |  | 1870 nM | 1.62 µM | 1.74 µM | 1690 nM | 1490 nM |  |  | 1.54 µM
11 | CCn1c2ccccc2c2cc(NC(=O)Nc3ccc([N+](=O)[O-])cc3C)ccc21 | > 100 µM | 4.01 µM | 15.4 µM | > 100 µM | 14.9 µM | 15.6 µM | 55.2 µM | 4.64 µM | 5.48 µM | 85 µM | 4250 nM | 1400 nM | 3330 nM | 5.35 µM | 3.56 µM | 3010 nM | 1270 nM |  |  | 5.02 µM
12 | O=C(Nc1nc(=S)c2c(ncn2CCOC(=O)c2ccccc2)[nH]1)c1ccccc1 | > 100 µM | > 100 µM | > 100 µM | > 100 µM | > 100 µM | > 100 µM | 79.6 µM | > 100 µM |  | 57.7 µM |  |  |  |  |  |  |  |  |  | 
13 | COc1ccc(CC2NCCc3c2[nH]c2ccccc32)cc1 (stereo not given) | 48.3 µM | > 100 µM | > 100 µM | > 100 µM | > 100 µM | > 100 µM | > 100 µM | 58.6 µM |  | > 100 µM |  |  |  |  |  |  |  |  |  | 
14 | CC1c2c(Cl)nc3ccccc3c2Oc2c1c(Cl)nc1ccccc21 | > 100 µM | > 100 µM | > 100 µM | > 100 µM | > 100 µM | > 100 µM | > 100 µM | > 100 µM |  |  |  |  |  |  |  |  |  |  |  | 
15 | O=C(c1ccccc1Br)C(F)(F)F | > 100 µM | > 100 µM |  | > 100 µM | > 100 µM | > 100 µM | > 100 µM |  |  | > 100 µM |  |  |  |  |  |  |  |  | > 100 µM | 
16 | C=C(Cl)C(Br)(CCl)CCC(Br)C(C)(C)Cl (stereo not given) | 30.5 µM | 3.06 µM | 7.42 µM | 12.8 µM | 9.71 µM | 4.23 µM | 7.66 µM |  | 3.25 µM | 8.24 µM |  |  | 3140 nM |  | 3.94 µM |  |  |  | 7.28 µM | 
17 | CO/N=C(\COc1ccc2c(c1)oc(=O)c1cc(OC)ccc12)c1ccc(OC)cc1 | > 100 µM | > 100 µM | > 100 µM | > 100 µM | > 100 µM | > 100 µM | > 100 µM | > 100 µM | 20.5 µM | > 100 µM | > 100000 nM | > 100000 nM | > 100000 nM | > 100 µM | > 100 µM | > 100000 nM | > 100000 nM |  |  | > 100 µM
